Measured values from US9198918B2, “Benzoxazepin PI3K inhibitor compounds and methods of use” (Genentech, Inc., priority 2009, dated 2015).

Assays:
[1] = molecular target: T1, PI3K alpha (p110 alpha) (Homo sapiens, UniProt P42336); assay: PI3K p110α (alpha) binding assay (Example 901); conditions: for IC50: read-out: IC50, inhibition of PI3K alpha (binding to p110 alpha)
T1 construct: purchased Upstate Cell Signaling Solutions, Charlottesville, Va
Description: Determination of the PI3 kinase activity of a Formula I compound is possible by a number of direct and indirect detection methods.

[2] = test system: AU565; assay: CellTiter-Glo cell proliferation assay, AU565; assay type: cell-based; conditions: Homo sapiens, Breast, mutation status WT
Description: (§1) Efficacy of Formula I compounds was measured by a cell proliferation assay employing the following protocol (Promega Corp. Technical Bulletin TB288; Mendoza et al (2002) Cancer Res. 62:5485-5488):
(§2) 1. An aliquot of 100 μl of cell culture containing about 104 cells (PC3, Detroit562, or MDAMB361.1) in medium was deposited in each well of a 384-well, opaque-walled plate.
(§3) 2. Control wells were prepared containing medium and without cells.
(§4) 3. The compound was added to the experimental wells and incubated for 3-5 days.
(§5) 4. The plates were equilibrated to room temperature for approximately 30 minutes.
(§6) 5. A volume of CellTiter-Glo Reagent equal to the volume of cell culture medium present in each well was added.
(§7) 6. The contents were mixed for 2 minutes on an orbital shaker to induce cell lysis.
(§8) 7. The plate was incubated at room temperature for 10 minutes to stabilize the luminescence signal.
(§9) 8. Luminescence was recorded and reported in graphs as RLU=relative luminescence units.
(§10) Alternatively, cells were seeded at optimal density in a 96 well plate and incubated for 4 days in the presence of test compound. Alamar Blue™ was subsequently added to the assay medium, and cells were incubated for 6 hr before reading at 544 nm excitation, 590 nm emission. EC50 values were calculated using a sigmoidal dose response curve fit. The term EC50 refers to the half maximal effective concentration and is the concentration at which a drug induces a response halfway between the baseline and maximum after some specified exposure time. It is commonly used as a measure of drug potency.
(§11) The anti-proliferative effects of Formula I exemplary compounds were measured by the CellTiter-Glo® Assay against various tumor cell lines, including the following: […]

[3] = test system: MDA-MB-361.1; assay: CellTiter-Glo cell proliferation assay, MDA-MB-361.1; assay type: cell-based; conditions: Breast, mutation status PI3K
Description: as §1, §2, §3, §4, §5, §6, §7, §8, §9, §10, §11

[4] = test system: PC3; assay: CellTiter-Glo cell proliferation assay, PC3; assay type: cell-based; conditions: Homo sapiens, PC-3, Prostate, mutation status PTEN
Description: as §1, §2, §3, §4, §5, §6, §7, §8, §9, §10, §11

[5] = test system: EVSA-T; assay: CellTiter-Glo cell proliferation assay, EVSA-T; assay type: cell-based; conditions: Homo sapiens, Breast, mutation status PTEN
Description: as §1, §2, §3, §4, §5, §6, §7, §8, §9, §10, §11

[6] = test system: HCC1954; assay: CellTiter-Glo cell proliferation assay, HCC1954; assay type: cell-based; conditions: Homo sapiens, Breast, mutation status PI3K
Description: as §1, §2, §3, §4, §5, §6, §7, §8, §9, §10, §11

[7] = test system: T47D; assay: CellTiter-Glo cell proliferation assay, T47D; assay type: cell-based; conditions: Homo sapiens, Breast, mutation status PI3K
Description: as §1, §2, §3, §4, §5, §6, §7, §8, §9, §10, §11

[8] = test system: A375; assay: CellTiter-Glo cell proliferation assay, A375; assay type: cell-based; conditions: Homo sapiens, A-375, Melanoma, mutation status B-Raf
Description: as §1, §2, §3, §4, §5, §6
6. […]
as §8, §9
(§12) Alternatively, cells were seeded at optimal density in a 96 well plate and incubated for 4 days in the presence of test compound. Alamar Blue™ was subsequently added to the assay medium, and cells were incubated for 6 hr before reading at 544 nm excitation, 590 nm emission. EC50 values were calculated using a sigmoidal dose response curve fit. […]
as §11

[9] = test system: KPL4; assay: CellTiter-Glo cell proliferation assay, KPL4; assay type: cell-based; conditions: Breast, mutation status PI3K
Description: as §1, §2, §3, §4, §5, §6, §7, §8, §9, §10, §11

[10] = test system: BT474; assay: CellTiter-Glo cell proliferation assay, BT474; assay type: cell-based; conditions: Homo sapiens, BT-474, Breast, mutation status PI3K(amped)
Description: as §1, §2, §3, §4, §5, §6, §7, §8, §9, §10, §11

[11] = test system: H2122; assay: CellTiter-Glo cell proliferation assay, H2122; assay type: cell-based; conditions: Homo sapiens, NCI-H2122, Lung(NSCLC), mutation status K-RAS
Description: as §1, §2, §3, §4, §5, §6, §7, §8, §9, §10, §11

[12] = test system: MFM223; assay: CellTiter-Glo cell proliferation assay, MFM223; assay type: cell-based; conditions: Homo sapiens, MFM-223, Breast, mutation status PI3K
Description: as §1, §2, §3, §4, §5, §6, §7, §8, §9, §10, §11

[13] = test system: SKBR3; assay: CellTiter-Glo cell proliferation assay, SKBR3; assay type: cell-based; conditions: Homo sapiens, SK-BR-3, Breast, mutation status WT
Description: as §1, §2, §3, §4, §5, §6
6. […]
as §8, §9, §12, §11

[14] = test system: MDST8; assay: CellTiter-Glo cell proliferation assay, MDST8; assay type: cell-based; conditions: Colon, mutation status PTEN
Description: as §1, §2, §3, §4, §5, §6
6. […]
as §8, §9, §12, §11

[15] = test system: KM12; assay: CellTiter-Glo cell proliferation assay, KM12; assay type: cell-based; conditions: Homo sapiens, Colon, mutation status PTEN
Description: as §1, §2, §3, §4, §5, §6
6. […]
as §8, §9, §12, §11

[16] = test system: U87MG; assay: CellTiter-Glo cell proliferation assay, U87MG; assay type: cell-based; conditions: Homo sapiens, U-87 MG, Glioma, mutation status PTEN
Description: as §1, §2, §3, §4, §5, §6
6. […]
as §8, §9, §12, §11

[17] = test system: H520; assay: CellTiter-Glo cell proliferation assay, H520; assay type: cell-based; conditions: Homo sapiens, NCI-H520, Lung(NSCLC), mutation status PTEN
Description: as §1, §2, §3, §4, §5, §6
6. […]
as §8, §9, §12, §11

T1 sequence (P42336 whole entry): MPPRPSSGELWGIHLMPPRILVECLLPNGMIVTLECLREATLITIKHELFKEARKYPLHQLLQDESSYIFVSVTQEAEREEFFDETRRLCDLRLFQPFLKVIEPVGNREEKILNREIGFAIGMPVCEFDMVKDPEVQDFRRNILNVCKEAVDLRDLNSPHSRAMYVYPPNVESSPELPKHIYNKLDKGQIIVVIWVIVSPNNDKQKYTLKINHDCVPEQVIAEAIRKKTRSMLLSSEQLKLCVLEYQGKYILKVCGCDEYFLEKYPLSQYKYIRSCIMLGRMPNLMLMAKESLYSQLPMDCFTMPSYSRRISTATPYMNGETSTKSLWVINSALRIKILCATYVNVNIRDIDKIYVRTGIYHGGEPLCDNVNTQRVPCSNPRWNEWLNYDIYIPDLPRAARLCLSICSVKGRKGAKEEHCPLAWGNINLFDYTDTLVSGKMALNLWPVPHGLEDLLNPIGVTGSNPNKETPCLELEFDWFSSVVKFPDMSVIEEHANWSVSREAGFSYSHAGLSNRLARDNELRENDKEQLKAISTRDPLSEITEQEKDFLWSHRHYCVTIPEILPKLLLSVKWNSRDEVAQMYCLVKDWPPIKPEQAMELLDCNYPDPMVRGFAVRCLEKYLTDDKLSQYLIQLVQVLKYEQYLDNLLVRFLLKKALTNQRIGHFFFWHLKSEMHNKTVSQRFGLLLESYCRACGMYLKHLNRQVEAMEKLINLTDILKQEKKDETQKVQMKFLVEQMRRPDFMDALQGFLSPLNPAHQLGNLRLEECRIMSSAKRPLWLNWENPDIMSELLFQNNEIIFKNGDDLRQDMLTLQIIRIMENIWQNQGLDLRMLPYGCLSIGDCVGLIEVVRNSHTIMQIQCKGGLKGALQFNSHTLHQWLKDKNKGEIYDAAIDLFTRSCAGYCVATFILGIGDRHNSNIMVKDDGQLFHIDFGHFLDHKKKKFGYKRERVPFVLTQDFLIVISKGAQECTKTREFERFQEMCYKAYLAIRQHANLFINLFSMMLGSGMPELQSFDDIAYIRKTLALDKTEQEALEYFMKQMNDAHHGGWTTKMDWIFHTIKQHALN
T1 sequence (P27986 whole entry partner): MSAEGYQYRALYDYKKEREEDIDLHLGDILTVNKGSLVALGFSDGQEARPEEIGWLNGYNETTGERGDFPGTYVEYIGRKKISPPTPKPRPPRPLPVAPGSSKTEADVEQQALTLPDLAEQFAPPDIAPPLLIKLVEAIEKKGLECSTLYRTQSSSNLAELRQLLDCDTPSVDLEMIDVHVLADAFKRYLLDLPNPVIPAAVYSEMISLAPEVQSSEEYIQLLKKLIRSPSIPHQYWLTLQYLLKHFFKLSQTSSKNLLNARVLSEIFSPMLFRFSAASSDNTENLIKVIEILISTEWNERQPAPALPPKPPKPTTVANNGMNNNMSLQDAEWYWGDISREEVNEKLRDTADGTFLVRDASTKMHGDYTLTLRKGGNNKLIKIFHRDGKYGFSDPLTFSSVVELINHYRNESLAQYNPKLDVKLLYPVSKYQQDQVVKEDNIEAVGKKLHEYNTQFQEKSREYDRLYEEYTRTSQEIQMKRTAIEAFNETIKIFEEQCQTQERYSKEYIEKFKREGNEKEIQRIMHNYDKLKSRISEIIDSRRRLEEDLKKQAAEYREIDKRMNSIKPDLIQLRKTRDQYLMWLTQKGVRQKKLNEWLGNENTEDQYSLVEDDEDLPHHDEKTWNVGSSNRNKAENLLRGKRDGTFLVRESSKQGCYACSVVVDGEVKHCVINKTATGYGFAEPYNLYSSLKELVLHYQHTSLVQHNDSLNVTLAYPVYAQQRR

Compound: CC(C)n1nc(N)nc1-c1cn2c(n1)-c1ccc(F)cc1OCC2 [compound 253, 5-(9-fluoro-5,6-dihydrobenzo[f]imidazo[1,2-d][1,4]oxazepin-2-yl)-1-isopropyl-1H-1,2,4-triazol-3-amine]
- IC50 [1]: 4.4 nM

Compound: CS(=O)(=O)CCN1CC(c2ccc3c(c2)OCCc2cn(-c4ncnn4-c4ccc(F)cc4F)nc2-3)C1 [compound 171, 2-(1-(2,4-difluorophenyl)-1H-1,2,4-triazol-5-yl)-8-(1-(2-(methylsulfonyl)ethyl)azetidin-3-yl)-4,5-dihydrobenzo-2H-oxepino[4,5-d]pyrazole]
- IC50 [1]: 0.66 nM

Compound: CN(C(=O)c1cc2n(n1)-c1ccccc1OCC2)c1ccc(F)cc1F [compound 101, N-(2,4-difluorophenyl)-N-methyl-4,5-dihydrobenzo[b]pyrazolo[1,5-d][1,4]oxazepine-2-carboxamide]
- IC50 [1]: 770 nM

Compound: Cc1nc(-c2cn3c(n2)-c2ccc(OC4COC4)cc2OCC3)n(C(C)C)n1 [compound 520, 2-(1-isopropyl-3-methyl-1H-1,2,4-triazol-5-yl)-9-(oxetan-3-yloxy)-5,6-dihydrobenzo[f]imidazo[1,2-d][1,4]oxazepine]
- Ki ([1]; read-out: Ki, inhibition of PI3K alpha (binding to p110 alpha)): 2.1 nM

Compound: CNC(=O)C(C)(C)N1CCC(c2ccc3c(c2)OCCn2cc(-c4ncnn4C(C)C)nc2-3)CC1 [compound 248, 2-(4-(2-(1-isopropyl-1H-1,2,4-triazol-5-yl)-5,6-dihydrobenzo[f]imidazo[1,2-d][1,4]oxazepin-9-yl)piperidin-1-yl)-N,2-dimethylpropanamide]
- IC50 [1]: 0.37 nM

Compound: Cc1nc(-c2cn3c(n2)-c2ccc(-c4cnn(C(C)(C)C(=O)O)c4)cc2OCC3)n(C(C)C)n1 [compound 251, 2-(4-(2-(1-isopropyl-3-methyl-1H-1,2,4-triazol-5-yl)-5,6-dihydrobenzo[f]imidazo[1,2-d][1,4]oxazepin-9-yl)-1H-pyrazol-1-yl)-2-methylpropanoic acid]
- IC50 [1]: 1.4 nM

Compound: NC(=O)c1ccc2c(c1)OCCc1cn(-c3ncnn3-c3ccc(F)cc3F)nc1-2 [compound 107, 2-(1-(2,4-difluorophenyl)-1H-1,2,4-triazol-5-yl)-4,5-dihydrobenzo-2H-oxepino[4,5-d]pyrazole-8-carboxamide]
- EC50 [2]: 259 nM
- EC50 [3]: 1050 nM
- EC50 [4]: 999 nM
- EC50 [5]: 1410 nM

Compound: Cc1nc(-c2cn3c(n2)-c2ccc(-c4cnn(C(C)(C)C(N)=O)c4)cc2OCC3)n(C(C)C)n1 [compound 196, 2-(4-(2-(1-isopropyl-3-methyl-1H-1,2,4-triazol-5-yl)-5,6-dihydrobenzo[f]imidazo[1,2-d][1,4]oxazepin-9-yl)-1H-pyrazol-1-yl)-2-methylpropanamide]
- EC50 [2]: 152 nM
- EC50 [3]: 178 nM
- EC50 [6]: 128 nM
- EC50 [7]: 45 nM
- EC50 [8]: 10000 nM
- EC50 [9]: 16 nM
- EC50 [10]: 86 nM

Compound: CC(C)n1ncnc1-c1cc2n(n1)-c1cc(C3CN(C(C)(C)CO)C3)ccc1OCC2 [compound 170, 2-(3-(2-(1-isopropyl-1H-1,2,4-triazol-5-yl)-4,5-dihydrobenzo[b]pyrazolo[1,5-d][1,4]oxazepin-9-yl)azetidin-1-yl)-2-methylpropan-1-ol]
- IC50 [1]: 22 nM

Compound: NC(=O)c1ccc2c(c1)-c1nc(-c3ncnn3-c3ccccc3Cl)cn1CCO2 [compound 102, 2-(1-(2-chlorophenyl)-1H-1,2,4-triazol-5-yl)-5,6-dihydrobenzo[f]imidazo[1,2-d][1,4]oxazepine-10-carboxamide]
- IC50 [1]: 3 nM

Compound: CC(C)n1ncnc1-c1cn2c(n1)-c1cnc(N3CCC[C@H]3C(N)=O)cc1OCC2 [compound 338, (2S)-1-(2-(1-isopropyl-1H-1,2,4-triazol-5-yl)-5,6-dihydroimidazo[1,2-d]pyrido[3,4-f][1,4]oxazepin-9-yl)pyrrolidine-2-carboxamide]
- IC50 [1]: 0.32 nM

Compound: CC(C)NC(=O)CN1CC(c2ccc3c(c2)OCCn2cc(-c4ncnn4C(C)C)nc2-3)C1 [compound 200, N-isopropyl-2-(3-(2-(1-isopropyl-1H-1,2,4-triazol-5-yl)-5,6-dihydrobenzo[f]imidazo[1,2-d][1,4]oxazepin-9-yl)azetidin-1-yl)acetamide]
- IC50 [1]: 2 nM

Compound: Fc1ccc(-n2ncnc2-n2cc3c(n2)-c2ccc(Br)cc2OCC3)c(F)c1 [compound 103, 2-(1-(2,4-difluorophenyl)-1H-1,2,4-triazol-5-yl)-8-bromo-4,5-dihydrobenzo-2H-oxepino[4,5-d]pyrazole]
- IC50 [1]: 58 nM

Compound: Cc1nc(-c2cn3c(n2)-c2ccc(-c4cnn(CCO)c4)cc2OCC3)n(C(C)C)n1 [compound 186, 2-(4-(2-(1-isopropyl-3-methyl-1H-1,2,4-triazol-5-yl)-5,6-dihydrobenzo[f]imidazo[1,2-d][1,4]oxazepin-9-yl)-1H-pyrazol-1-yl)ethanol]
- EC50 [2]: 470 nM
- EC50 [3]: 710 nM
- EC50 [6]: 420 nM
- EC50 [11]: 2950 nM
- EC50 [12]: 1100 nM
- EC50 [13]: 860 nM
- EC50 [4]: 1300 nM
- EC50 [5]: 2000 nM
- EC50 [7]: 133 nM
- EC50 [9]: 88 nM
- EC50 [10]: 324 nM

Compound: CC(C)n1ncnc1-c1cn2c(n1)-c1ccc(-c3cn(CCO)cn3)cc1OCC2 [compound 207, 2-(4-(2-(1-isopropyl-1H-1,2,4-triazol-5-yl)-5,6-dihydrobenzo[f]imidazo[1,2-d][1,4]oxazepin-9-yl)-1H-imidazol-1-yl)ethanol]
- EC50 [2]: 3730 nM
- EC50 [3]: ≥ 10000 nM
- EC50 [6]: 3390 nM
- EC50 [11]: ≥ 10000 nM
- EC50 [12]: 7250 nM
- EC50 [14]: 7790 nM
- EC50 [15]: ≥ 10000 nM
- EC50 [4]: 762 nM
- EC50 [5]: 1770 nM
- EC50 [16]: 5770 nM
- EC50 [7]: 762 nM
- EC50 [9]: 1360 nM
- EC50 [17]: 1290 nM
- EC50 [10]: 1680 nM

Compound: Clc1ccccc1-n1ncnc1-n1cc2c(n1)-c1cc(C3CCNCC3)ccc1OCC2 [compound 154, 2-(1-(2-chlorophenyl)-1H-1,2,4-triazol-5-yl)-9-piperid-4-yl-4,5-dihydrobenzo-2H-oxepino[4,5-d]pyrazole]
- IC50 [1]: 0.91 nM
